# Test results: patent publication US20120196899A1, “METHODS AND PRODUCTS FOR TREATING INFLAMMATION” (Rock Creek Pharmaceuticals, Inc., priority 2010, published 2012)
# “And” between values parts separate entries of the source, which are not always exact repeats. Equal entries are not always repeated.
# Experiments:
# [1] = tested on: TNFα-induced NFκB activity; experiment: NFκB luciferase assay (inhibition of TNFα-induced NFκB activity) in HEK293 reporter cells; assay type: cell-based, Human; conditions: HEK293 reporter cells challenged with TNFα for three hours
# Method: The smokeless tobacco used in these experiments was plain long-leaf Copenhagen tobacco purchased from a local vendor. Crude extract was extracted with methanol and water and clarified by centrifugation and filtration. The alkaloid extract was prepared from sodium hydroxide and methanol extraction, organic phase separation and purification. All treatment samples were prepared as a function of weight (μg/ml), and all samples were diluted in DMSO.
# Human […] kidney cells (HEK293) transfected with an NFκB luciferase reporter were challenged with TNFα for three hours, then samples were applied to the challenged cells.
# [2] = Physical signs after single i.v. dose (Example 3); assay type: in vivo, Sprague-Dawley rats; conditions: anatabine 0.1, 0.75, 1.0 mg/kg single i.v., rats
# Method: Four aliquots of each dose level formulation were collected and stored at −80° C. The test compound, corresponding dose level, number of animals, and sample collection times for Phase I of the study are shown in Table 3. The test compound, corresponding dose level, number of animals, and sample collection times for Phase II of the study are shown in Table 4. The physical signs of each animal were monitored following administration of the test compound.
# [3] = Body weights, weight gain and food consumption over 14 days after single i.v. dose; assay type: in vivo, Sprague-Dawley rats; conditions: individual rats
# Method: Body weight and food consumption was measured daily for 14 days. On day 15, urine was collected on all surviving animals. The animals were euthanized and bled via cardiac puncture, and blood was collected for analysis. Tissues were collected, weighed, evaluated for gross abnormalities, and stored in 10% neutral-buffered formalin.
# All animals were observed daily.
smiles,measurement,setting,value
"C1=CCC(c2cccnc2)NC1 (racemic) [Anatabine, 1,2,3,6-tetrahydro-[2,3′]bipyridinyl]",TNFα-induced NFκB-mediated transcription of luciferase,[1],can reduce this transcription to control levels
same,physical signs,[2],no obvious adverse signs were observed
same,day 1 B.W.,"[3]; 0.1 mg/kg, F",211.1 g and 201.0 g and 210.9 g
same,day 2 B.W.,"[3]; 0.1 mg/kg, F",223.9 g and 215.1 g and 208.1 g and 208.8 g and 212.8 g
same,day 3 B.W.,"[3]; 0.1 mg/kg, F",230.8 g and 213.2 g and 209.1 g (2×) and 219.3 g
same,day 4 B.W.,"[3]; 0.1 mg/kg, F",242.3 g and 222.4 g and 220.7 g and 211.4 g and 224.7 g
same,day 5 B.W.,"[3]; 0.1 mg/kg, F",246.9 g and 226.4 g and 219.3 g and 221.0 g and 229.5 g
same,day 6 B.W.,"[3]; 0.1 mg/kg, F",241.1 g and 235.5 g and 220.1 g and 218.8 g and 222.9 g
same,day 7 B.W.,"[3]; 0.1 mg/kg, F",246.5 g and 226.4 g and 221.7 g and 222.1 g and 232.1 g
same,day 8 B.W.,"[3]; 0.1 mg/kg, F",252.0 g and 232.0 g and 227.0 g and 235.0 g
same,day 9 B.W.,"[3]; 0.1 mg/kg, F",255.1 g and 239.9 g and 224.1 g and 232.0 g
same,day 11 B.W.,"[3]; 0.1 mg/kg, F",274.8 g and 238.5 g and 233.9 g and 245.6 g and 245.4 g
same,day 12 B.W.,"[3]; 0.1 mg/kg, F",277.2 g and 246.3 g and 242.0 g and 240.0 g and 241.6 g
same,day 13 B.W.,"[3]; 0.1 mg/kg, F",271.8 g and 241 g and 242.1 g
same,day 14 B.W.,"[3]; 0.1 mg/kg, F",272.7 g and 248.5 g and 243.9 g and 255.6 g and 239.2 g
same,day 1 B.W.,"[3]; 0.1 mg/kg, M",233.7 g and 235.0 g and 243.5 g and 239.9 g
same,day 2 B.W.,"[3]; 0.1 mg/kg, M",257.0 g and 235.1 g and 231.0 g and 253.5 g and 247.3 g
same,day 3 B.W.,"[3]; 0.1 mg/kg, M",270.0 g and 251.0 g and 252.0 g and 259.4 g
same,day 4 B.W.,"[3]; 0.1 mg/kg, M",286.0 g and 270.0 g and 271.2 g and 280.5 g and 273.7 g
same,day 5 B.W.,"[3]; 0.1 mg/kg, M",296.5 g and 273.8 g and 278.5 g and 288.3 g and 286.6 g
same,day 6 B.W.,"[3]; 0.1 mg/kg, M",301.8 g and 278 g and 284.3 g and 288.3 g and 219.6 g
same,day 7 B.W.,"[3]; 0.1 mg/kg, M",318.2 g and 293.8 g and 297.6 g and 301.2 g and 300.7 g
same,day 8 B.W.,"[3]; 0.1 mg/kg, M",327.0 g and 309.0 g and 310.0 g and 311.0 g
same,day 9 B.W.,"[3]; 0.1 mg/kg, M",336.8 g and 303.4 g and 310.0 g and 318.7 g and 317.4 g
same,day 10 B.W.,"[3]; 0.1 mg/kg, M",346.4 g and 312.9 g and 319.9 g and 322.3 g and 330.4 g
same,day 11 B.W.,"[3]; 0.1 mg/kg, M",365.7 g and 331.0 g and 343.8 g and 346.9 g and 348.8 g
same,day 12 B.W.,"[3]; 0.1 mg/kg, M",359.9 g and 320.0 g and 341.9 g and 347.3 g and 360.9 g
same,day 13 B.W.,"[3]; 0.1 mg/kg, M",367 g and 331 g and 349 g and 334.4 g and 360 g
same,day 14 B.W.,"[3]; 0.1 mg/kg, M",391.0 g and 347.3 g and 368.8 g and 353.5 g and 373.8 g
same,day 1 B.W.,"[3]; 0.75 mg/kg, F",208.9 g and 207.7 g and 219.1 g and 196.7 g and 199.5 g
same,day 2 B.W.,"[3]; 0.75 mg/kg, F",206.2 g and 210.0 g (2×) and 225.5 g and 210.1 g
same,day 3 B.W.,"[3]; 0.75 mg/kg, F",214.0 g (2×) and 224.8 g and 213.6 g and 210.8 g
same,day 6 B.W.,"[3]; 0.75 mg/kg, F",224.4 g and 217.8 g and 236.2 g and 214.7 g and 221.4 g
same,day 7 B.W.,"[3]; 0.75 mg/kg, F",227.4 g and 243.2 g and 222 g and 219.3 g
same,day 8 B.W.,"[3]; 0.75 mg/kg, F",232.0 g and 220.0 g and 243.0 g and 224.6 g and 227.4 g
same,day 9 B.W.,"[3]; 0.75 mg/kg, F",237.3 g and 226.3 g and 247.6 g and 229.1 g and 230.6 g
same,day 10 B.W.,"[3]; 0.75 mg/kg, F",239.3 g and 232.2 g and 252.7 g and 230.9 g and 233.5 g
same,day 11 B.W.,"[3]; 0.75 mg/kg, F",250.9 g and 239.1 g and 268.8 g and 240.9 g and 244.1 g
same,day 12 B.W.,"[3]; 0.75 mg/kg, F",249.7 g and 233.5 g and 259.6 g and 241.6 g and 247.9 g
same,day 13 B.W.,"[3]; 0.75 mg/kg, F",248 g and 237.2 g and 268 g and 234 g and 243 g
same,day 14 B.W.,"[3]; 0.75 mg/kg, F",251.5 g and 242.8 g and 274.1 g and 250.7 g and 250.6 g
same,day 4 B.W.,"[3]; 0.75 mg/kg, F, second one headed day 4",225.4 g and 219.3 g and 237.1 g and 220.8 g and 227.6 g
same,day 4 B.W.,"[3]; 0.75 mg/kg, F, day 4",230.0 g and 214.7 g and 232.4 g and 222.1 g and 220.0 g
same,day 1 B.W.,"[3]; 0.75 mg/kg, M",242.7 g and 251.4 g and 231.9 g and 226.8 g and 239.8 g
same,day 2 B.W.,"[3]; 0.75 mg/kg, M",259.7 g and 240.0 g and 232.1 g and 247.2 g
same,day 3 B.W.,"[3]; 0.75 mg/kg, M",261.1 g and 269.1 g and 252.0 g and 243.0 g and 256.1 g
same,day 6 B.W.,"[3]; 0.75 mg/kg, M",282.4 g and 287.6 g and 268.2 g (2×) and 281.3 g
same,day 7 B.W.,"[3]; 0.75 mg/kg, M",294.5 g and 302.9 g and 281.8 g and 274.1 g and 287.1 g
same,day 8 B.W.,"[3]; 0.75 mg/kg, M",300.0 g and 310.6 g and 293.4 g and 284.2 g
same,day 9 B.W.,"[3]; 0.75 mg/kg, M",307.6 g and 319.8 g and 298.8 g and 296.2 g and 298.5 g
same,day 10 B.W.,"[3]; 0.75 mg/kg, M",317.2 g and 331.9 g and 307.9 g and 303.8 g and 306.8 g
same,day 11 B.W.,"[3]; 0.75 mg/kg, M",334.6 g and 339.8 g and 329.4 g and 316.1 g and 321.9 g
same,day 12 B.W.,"[3]; 0.75 mg/kg, M",327.6 g and 325.4 g and 322.5 g and 324.8 g and 331.1 g
same,day 13 B.W.,"[3]; 0.75 mg/kg, M",335.6 g and 338 g and 330 g and 326 g (2×)
same,day 14 B.W.,"[3]; 0.75 mg/kg, M",351.9 g and 357.9 g and 345.1 g and 339 g and 335.9 g
same,day 4 B.W.,"[3]; 0.75 mg/kg, M, second one headed day 4",282.3 g and 287.6 g and 269.9 g and 262.0 g and 275.7 g
same,day 4 B.W.,"[3]; 0.75 mg/kg, M, day 4",275.7 g and 286.0 g and 268.0 g and 256.3 g and 271.2 g
